Assay results: patent publication US20250000837A1, “METHOD FOR TREATING RETINAL DEGENERATION” (SMILEBIOTEK ZHUHAI LIMITED, priority 2021, published 2025)

Tests used:
[1] = tested on: Crb1^rd8/rd8 mouse suffering from fundus degenerative retinopathy; assay: Intragastric administration therapy of Crb1^rd8/rd8 mouse suffering from fundus degenerative retinopathy; count of fundus light spots; assay type: in vivo; conditions: for Eyes with slight decrease of crystalline lens transparency (fundus light spots cannot be observed clearly): 0.3 g/kg intragastric; for Change of spots 4 weeks after drug administration / Change of spots 2 weeks after drug administration: change of number of fundus light spots, Crb1^rd8/rd8 mouse, mean ± s; for Change of spots 4 weeks after drug administration: 0.3 g/kg intragastric once every other day for 4 weeks, P = 0.0005 vs model control group; for Change of spots 2 weeks after drug administration: 0.3 g/kg intragastric once every other day, P = 0.1518 vs model control group
Procedure: The mouse is anaesthetized and pupils are dilated. A cornea remains moist by applying hydroxypropyl methylcellulose eye drops regularly. A mouse fundus photo is obtained by using a Micron IV mouse fundus camera (Phoenix Research Laboratories, Inc., Pleasanton, CA, USA).
When a sample for test is prepared, 4 mL of castor oil which is already autoclaved is measured, 1.2 g of compound 6 powder is weighted, 1-2 mL of castor oil is added, full grinding is performed, a ground drug and residual castor oil are all transferred to a 50 mL tube with 36 mL ultrapure water to be oscillated and uniformly mixed for still standing overnight, so a compound 6 suspension with a concentration being 30 mg/mL is prepared, and the prepared drug liquid is labeled, saved at a normal temperature and used up within a month.
• Species and strains: Crb1^rd8/rd8 mouse • Grade: SPF grade • Quantity and gender: 18 mice, either gender • Weight range: 16-24 g • Supply unit: Gempharmatech Co., Ltd.
When drug administration starts, a healthy one-month-old Crb1^rd8/rd8 mouse is selected for an experiment.
Animals are hierarchically divided according to weights and then randomly divided into a model control group and a compound 6 group.
Drug administration route and method: intragastric administration, 10.0 mL/kg weight
Drug administration frequency and time limit: once every other day, for 4 weeks
Dosage of the compound 6 is 0.3 g/kg weight for the mouse and is converted according to previous clinical medication.
One-month-old Crb1^rd8/rd8 mice are randomly divided into the model control group and the compound 6 drug administration group. A solvent or a compound 6 drug is administered intragastrically to the animals, a dosage of the compound 6 is 0.3 g/kg, once every other day, continuous drug administration for 4 weeks. The number of fundus light slots 2 weeks and 4 weeks after the mouse is administered intragastrically is recorded for analysis and comparison.
A change of the number of fundus light spots of the mice at each time point after drug administration is used as a parameter, and SPSS software is used for the statistic analysis. A statistical result is represented by X+s; and an inspection level=0.05, and an average of experiment data and statistically processed data remain 2 decimal places.

[2] = tested on: drusen-like lesion in retinal tissue of a macaque; conditions: administered to vitreous humor; cited from earlier work

| Structure (SMILES) | Inhibition of fundus degenerative retinopathy ([1]; Crb1^rd8/rd8 mice, dosage of 0.3 g/kg) | Eyes with slight decrease of crystalline lens transparency (fundus light spots cannot be observed clearly) ([1]; Week 2 of the experiment, attributed to anesthesia, correlation with compound not excluded) | Eyes with slight decrease of crystalline lens transparency (fundus light spots cannot be observed clearly) ([1]; Week 4 of the experiment, 1/18 eye also in model control group) | Change of spots 4 weeks after drug administration [1] | Change of spots 4 weeks after drug administration ([1]; listed as compound 6) | Change of spots 2 weeks after drug administration [1] | Change of spots 2 weeks after drug administration ([1]; listed as compound 6) | Size of the drusen-like lesion in retinal tissue compared with a control [2] |
| --- | --- | --- | --- | --- | --- | --- | --- | --- |
| CCCCCCCCOC(=O)c1cc(O)c(O)c(O)c1 [Compound 6, octyl gallate] | effectively inhibit | 2/18 | 1/18 | −3.63 ± 4.06 | −3.63±4.06 | 1.31 ± 3.18 | 1.31±3.18 |  |
| CN[C@H](CC(C)C)C(=O)N[C@H]1C(=O)N[C@@H](CC(N)=O)C(=O)N[C@H]2C(=O)N[C@H]3C(=O)N[C@H](C(=O)N[C@H](C(=O)O)c4cc(O)cc(O)c4-c4cc3ccc4O)[C@H](O)c3ccc(c(Cl)c3)Oc3cc2cc(c3O[C@@H]2O[C@H](CO)[C@@H](O)[C@H](O)[C@H]2O[C@H]2C[C@](C)(N)[C@H](O)[C@H](C)O2)Oc2ccc(cc2Cl)[C@H]1O [vancomycin] |  |  |  |  |  |  |  | reduce a size of the drusen-like lesion |
